In patent US11781160B2, “Methods for the production of methacrylates” (priority 2018, dated 2023):

Columns and labels:
[1] = system: gene transcription in wild type; assay: Transcriptome analysis with added BMA, wild type
Procedure: Transcriptome analysis was carried out to characterize transcriptional activity in mutant microorganisms using standard methods.
Sample Preparation • 1) Streak strains onto fresh MSX agar (15 g/L) plates directly from the cryostocks and incubate overnight at 37° C. • 2) Isolate single colonies and inoculate pre-cultures in MSX, using 50 ml shake flasks. Incubate overnight at 37° C. and 250 rpm. • 3) Inoculate cultures in MSX to an initial OD600 of 0.05, using 250 mL pyrex shake flasks with 24/29 neck join. Incubate at 37° C. and 250 rpm. Do 4 biological replicates (3 replicates for sequencing plus one backup)—4 flasks per strain. • 4) Seal shake flasks with sterile Suba seals. To monitor OD, take samples using a sterile syringe and needle after first swabbing the Suba seals with 70% ethanol. Monitor OD. • 5) When OD reaches 0.3, collect first sample for RNA extraction (“before” sample) into a pre-chilled falcon. Keep samples on ice. • 6) Immediately after, add 20% (v/v) BMA. Re-incubate cultures. • 7) Quickly process the samples according to the RNeasy kit protocol, until step 6 of protocol 1. Always keep samples on ice and store it at −80° C. until further use, if possible, flash freeze in liquid nitrogen it before storing. • 8) One hour after the first sample collection/BMA addition, collect the second sample for RNA extraction (“after” sample). Proceed as explained before. • 9) Continue to monitor the OD until the cultures reach 24 h. • To summarise, each strain tested will have 6 samples to send for sequencing, 3 collected right before the addition and 3 collected one hour after, plus 1 “back-up” for before and after, in case something goes wrong during extraction (8 samples total). Besides the WT strain with the addition of BMA, samples were also collected from a WT culture with no BMA, one hour after reaching OD of 0.3, as a control.
Transcription was compared for a double mutant and the wild-type in the presence and absence of BMA relative to the level in the wild type in the absence of BMA. For the avoidance of doubt the level in the table is the ratio of the level in the strain under the BMA exposure relative to the level in the wild type in the absence of added BMA.

[2] = system: E. coli BW25113 isolate 5-soxR(Leu139X), 580116(G > T) acrR(indels); assay: Growth kinetics of isolated strain 5 with 20% v/v BMA
[3] = system: E. coli BW25113 isolate 20-marR(V84G) rpoC(R1075C) ompR(R15S) acrR(indels); assay: Growth kinetics of isolated strain 20 with 20% v/v BMA

C=C(C)C(=O)OCCCC [BMA, butyl 2-methylprop-2-enoate]
IdhA transcription level relative to wild type without BMA [1]: 0.59
acrA transcription level relative to wild type without BMA [1]: 0.64
acrB transcription level relative to wild type without BMA [1]: 0.98
adiY transcription level relative to wild type without BMA [1]: 0.19
ariR transcription level relative to wild type without BMA [1]: 0.44
asr transcription level relative to wild type without BMA [1]: 0.22
bssR transcription level relative to wild type without BMA [1]: 0.46
ibpA transcription level relative to wild type without BMA [1]: 0.09
ibpB transcription level relative to wild type without BMA [1]: 0.42
narG transcription level relative to wild type without BMA [1]: 0.40
nirB transcription level relative to wild type without BMA [1]: 0.06
nirD transcription level relative to wild type without BMA [1]: 0.57
pspA transcription level relative to wild type without BMA [1]: 0.04
pspB transcription level relative to wild type without BMA [1]: 0.73
pspD transcription level relative to wild type without BMA [1]: 0.14
pspc transcription level relative to wild type without BMA [1]: 0.10
raiA transcription level relative to wild type without BMA [1]: 0.11
rmf transcription level relative to wild type without BMA [1]: 0.28
soxS transcription level relative to wild type without BMA [1]: 0.24
spy transcription level relative to wild type without BMA [1]: 3.91
ybfA transcription level relative to wild type without BMA [1]: 0.39
ybhG transcription level relative to wild type without BMA [1]: 0.19
ybiH transcription level relative to wild type without BMA [1]: 0.04
ydgU transcription level relative to wild type without BMA [1]: 7.95
yhjx transcription level relative to wild type without BMA [1]: 1.72
yibT transcription level relative to wild type without BMA [1]: 0.09
ymgA transcription level relative to wild type without BMA [1]: 0.16
ymgC transcription level relative to wild type without BMA [1]: 6.27
ynfM transcription level relative to wild type without BMA [1]: 0.07
yohk transcription level relative to wild type without BMA [1]: 0.13
Growth rate [2]: 0.625 ± 0.052 h⁻¹
Lag time [2]: 5 h
Max cell concentration [2]: 0.597 ± 0.096 g/L
Growth rate [3]: 0.719 ± 0.041 h⁻¹
Lag time [3]: 5 h
Max cell concentration [3]: 0.589 ± 0.012 g/L
